Laboratory results taken from ChEMBL document CHEMBL4828744, “Design, synthesis and biological evaluation of pyridinylmethylenepiperidine derivatives as potent 5-HT1F receptor agonists for migraine therapy” (Eur J Med Chem, 2021).
pEC50, pIC50: −log10 of the molar value. Calls of active or inactive are those of the source. No cut-off for these calls is given here.

Experiments:
[1] = Cmax in monkey at 25 mg/kg, ig administered for 28 days by LC-MS/MS analysis; format: ADME, organism-based, Macaca mulatta; design: route intragastric, dose 25 mg/kg, time 28 day; details: rhesus monkey, in vivo, po
[2] = Cmax in Sprague-Dawley rat at 1 mg/kg, iv measured for 24 hrs by LC-MS/MS analysis; format: ADME, organism-based; design: route intravenous, dose 1 mg/kg, time 24 hrs; details: in vivo
[3] = biological target: T1, 5-hydroxytryptamine receptor 3A (Homo sapiens, UniProt P46098); assay: Binding affinity to human 5HT3 receptor
T1 sequence (P46098 whole entry): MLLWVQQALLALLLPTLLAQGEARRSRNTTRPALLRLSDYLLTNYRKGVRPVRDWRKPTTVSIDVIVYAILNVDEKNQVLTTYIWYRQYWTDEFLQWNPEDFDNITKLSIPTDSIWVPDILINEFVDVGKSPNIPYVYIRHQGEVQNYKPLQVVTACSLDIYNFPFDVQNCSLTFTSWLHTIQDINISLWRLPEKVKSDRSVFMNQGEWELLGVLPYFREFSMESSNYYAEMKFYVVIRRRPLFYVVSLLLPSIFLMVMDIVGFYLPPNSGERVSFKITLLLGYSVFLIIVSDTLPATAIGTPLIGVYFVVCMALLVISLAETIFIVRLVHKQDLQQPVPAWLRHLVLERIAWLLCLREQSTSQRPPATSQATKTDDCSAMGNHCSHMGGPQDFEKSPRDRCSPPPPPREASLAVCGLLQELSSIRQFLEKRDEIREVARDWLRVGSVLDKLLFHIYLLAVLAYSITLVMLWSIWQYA

[4] = biological target: T2, 5-hydroxytryptamine receptor 2C (Homo sapiens, UniProt P28335); assay: Binding affinity to human 5HT2C receptor
T2 sequence (P28335 whole entry): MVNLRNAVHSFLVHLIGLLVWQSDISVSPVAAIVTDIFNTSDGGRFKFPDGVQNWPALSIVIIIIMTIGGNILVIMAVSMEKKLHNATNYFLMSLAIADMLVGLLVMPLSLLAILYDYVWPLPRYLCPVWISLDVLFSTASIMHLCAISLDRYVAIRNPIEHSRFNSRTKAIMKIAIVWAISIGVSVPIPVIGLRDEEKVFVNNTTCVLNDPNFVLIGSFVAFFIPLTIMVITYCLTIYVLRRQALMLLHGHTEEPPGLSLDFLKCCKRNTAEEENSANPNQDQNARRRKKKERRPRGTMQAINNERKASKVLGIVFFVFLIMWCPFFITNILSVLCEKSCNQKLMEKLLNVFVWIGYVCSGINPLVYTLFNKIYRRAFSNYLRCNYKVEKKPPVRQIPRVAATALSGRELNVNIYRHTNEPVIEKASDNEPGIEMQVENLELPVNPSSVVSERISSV

[5] = Toxicity in ig dosed Sprague-Dawley rat administered for 28 days; format: organism-based; details: in vivo, po, time 28 day
[6] = biological target: 5-hydroxytryptamine receptor 1B (Homo sapiens, UniProt P28222); assay: Binding affinity to human 5HT1B receptor
Sequence of 5-hydroxytryptamine receptor 1B (P28222 whole entry): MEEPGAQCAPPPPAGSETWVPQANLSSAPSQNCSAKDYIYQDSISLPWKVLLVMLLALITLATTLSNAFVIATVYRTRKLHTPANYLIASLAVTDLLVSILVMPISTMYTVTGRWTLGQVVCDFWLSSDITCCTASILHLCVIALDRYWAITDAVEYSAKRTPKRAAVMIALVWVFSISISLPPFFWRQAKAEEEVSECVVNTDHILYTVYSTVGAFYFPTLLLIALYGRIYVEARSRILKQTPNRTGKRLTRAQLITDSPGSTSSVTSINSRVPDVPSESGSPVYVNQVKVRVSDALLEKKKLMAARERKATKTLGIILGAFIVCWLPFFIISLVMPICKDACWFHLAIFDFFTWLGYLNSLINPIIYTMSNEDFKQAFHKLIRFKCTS

[7] = AUC(0 to t) in Sprague-Dawley rat at 1 mg/kg, iv measured for 24 hrs by LC-MS/MS analysis; format: ADME, organism-based; design: time 24 hrs, dose 1 mg/kg; details: in vivo
[8] = biological target: T3, 5-hydroxytryptamine receptor 1F (Homo sapiens, UniProt P30939); assay: Binding affinity to human 5HT1F receptor
T3 sequence (P30939 whole entry): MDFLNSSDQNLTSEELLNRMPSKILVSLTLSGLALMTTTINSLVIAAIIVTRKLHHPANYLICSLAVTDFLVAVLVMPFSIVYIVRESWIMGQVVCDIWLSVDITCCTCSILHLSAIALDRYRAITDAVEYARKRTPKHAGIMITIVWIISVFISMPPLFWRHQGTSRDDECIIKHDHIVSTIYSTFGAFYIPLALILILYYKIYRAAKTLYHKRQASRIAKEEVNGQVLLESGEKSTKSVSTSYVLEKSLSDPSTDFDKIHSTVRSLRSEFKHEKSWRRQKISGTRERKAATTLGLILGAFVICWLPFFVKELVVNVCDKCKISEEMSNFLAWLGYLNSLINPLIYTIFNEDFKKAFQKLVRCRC

[9] = Cmax in Sprague-Dawley rat at 150 mg/kg, ig administered for 28 days by LC-MS/MS analysis; format: ADME, organism-based; design: route intragastric, dose 150 mg/kg, time 28 day; details: in vivo, po
Rattus norvegicus [10] = assay: Antimigraine activity against electrical stimulation of trigeminal ganglion migraine Wistar rat model assessed as reduction in dural plasma protein extravasation at 0.01 to 0.1 ug/kg, po measured after 45 mins by confocal fluorescence microscopic analysis; format: functional, organism-based; details: dose 0.01-0.1 µg/kg
[11] = Half life in Sprague-Dawley rat at 1 mg/kg, iv measured for 24 hrs by LC-MS/MS analysis; format: ADME, organism-based; details: in vivo
[12] = Half life in Sprague-Dawley rat at 5 mg/kg, ig measured for 24 hrs by LC-MS/MS analysis; format: ADME, organism-based; details: in vivo, po
[13] = Cmax in Sprague-Dawley rat at 15 mg/kg, ig administered for 28 days by LC-MS/MS analysis; format: ADME, organism-based; design: route intragastric, dose 15 mg/kg, time 28 day; details: in vivo, po
[14] = biological target: T3, 5-hydroxytryptamine receptor 1F; assay: Agonist activity at 5HT1F receptor (unknown origin) expressed in HEK293 cells measured after 60 mins by Fluo-4AM dye based FLIPR assay; format: functional, cell-based; details: read-out: IC50 (the source's name)
[15] = biological target: 5-hydroxytryptamine receptor 2A (Homo sapiens, UniProt P28223); assay: Binding affinity to human 5HT2A receptor
Sequence of 5-hydroxytryptamine receptor 2A (P28223 whole entry): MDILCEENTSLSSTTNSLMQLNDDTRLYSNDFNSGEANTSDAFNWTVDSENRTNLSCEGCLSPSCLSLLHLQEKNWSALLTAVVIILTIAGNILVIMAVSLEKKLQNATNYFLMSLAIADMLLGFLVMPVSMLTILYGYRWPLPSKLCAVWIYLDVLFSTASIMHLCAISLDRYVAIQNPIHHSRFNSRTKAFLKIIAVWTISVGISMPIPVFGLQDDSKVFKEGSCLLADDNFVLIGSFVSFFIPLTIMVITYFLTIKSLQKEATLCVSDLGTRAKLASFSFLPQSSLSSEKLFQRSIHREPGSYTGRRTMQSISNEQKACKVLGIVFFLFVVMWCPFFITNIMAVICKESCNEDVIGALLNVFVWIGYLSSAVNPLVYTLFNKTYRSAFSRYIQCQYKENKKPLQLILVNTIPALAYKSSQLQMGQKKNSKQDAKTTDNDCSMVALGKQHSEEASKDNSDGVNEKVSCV

[16] = AUC (0 to 24hrs) in monkey at 25 mg/kg, ig by LC-MS/MS analysis; format: ADME, organism-based, Macaca mulatta; design: time < 24 hr, route intragastric, dose 25 mg/kg; details: rhesus monkey, in vivo, po
[17] = Cmax in monkey at 1 mg/kg, ig administered for 28 days by LC-MS/MS analysis; format: ADME, organism-based, Macaca mulatta; design: route intragastric, dose 1 mg/kg, time 28 day; details: rhesus monkey, in vivo, po
[18] = Volume of distribution at steady state in Sprague-Dawley rat at 1 mg/kg, iv measured for 24 hrs by LC-MS/MS analysis; format: ADME, organism-based; details: in vivo, read-out: Vdss
[19] = AUC (0 to 24hrs) in Sprague-Dawley rat at 50 mg/kg, ig by LC-MS/MS analysis; format: ADME, organism-based; design: time < 24 hr, route intragastric, dose 50 mg/kg; details: in vivo, po
[20] = Clearance in Sprague-Dawley rat at 1 mg/kg, iv measured for 24 hrs by LC-MS/MS analysis; format: ADME, organism-based; details: in vivo
[21] = AUC (0 to 24hrs) in monkey at 1 mg/kg, ig by LC-MS/MS analysis; format: ADME, organism-based, Macaca mulatta; design: time < 24 hr, route intragastric, dose 1 mg/kg; details: rhesus monkey, in vivo, po
Homo sapiens = species: Homo sapiens; assay: Selectivity ratio of IC50 for human 5HT2B receptor to IC50 for human 5HT1F receptor
[22] = biological target: 5-HT1A/5-HT1F (Homo sapiens) (UniProt P30939+P08908); assay: Selectivity ratio of IC50 for human 5HT1A receptor to IC50 for human 5HT1F receptor; format: protein assay
Sequence of 5-HT1A/5-HT1F (Homo sapiens) (P08908 whole entry, looked up, one chain of several): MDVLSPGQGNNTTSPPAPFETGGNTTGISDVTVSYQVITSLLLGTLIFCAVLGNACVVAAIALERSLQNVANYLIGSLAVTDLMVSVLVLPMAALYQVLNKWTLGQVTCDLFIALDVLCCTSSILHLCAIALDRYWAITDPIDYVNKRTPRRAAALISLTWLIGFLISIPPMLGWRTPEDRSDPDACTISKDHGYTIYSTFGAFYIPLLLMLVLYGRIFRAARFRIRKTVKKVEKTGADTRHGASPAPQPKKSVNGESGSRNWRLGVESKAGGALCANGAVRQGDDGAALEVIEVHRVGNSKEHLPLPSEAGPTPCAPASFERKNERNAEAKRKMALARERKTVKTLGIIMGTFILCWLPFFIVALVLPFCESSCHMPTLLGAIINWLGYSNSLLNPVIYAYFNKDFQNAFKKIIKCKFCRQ

[23] = Toxicity in Sprague-Dawley rat assessed as effect on body weight at 150 mg/kg/day, ig administered for 28 days; format: organism-based; details: in vivo, po, 672 h, time 28 day
[24] = AUC (0 to 24hrs) in monkey at 5 mg/kg, ig by LC-MS/MS analysis; format: ADME, organism-based, Macaca mulatta; design: time < 24 hr, route intragastric, dose 5 mg/kg; details: rhesus monkey, in vivo, po
Rattus norvegicus [25] = assay: Antimigraine activity against electrical stimulation of trigeminal ganglion migraine Wistar rat model assessed as reduction in c-Fos-positive cells at 10 ug/kg, po measured after 60 mins by confocal fluorescence microscopic analysis; format: functional, organism-based; details: dose 10.0 µg/kg

Cmax [1]: 3630 ng/mL
Cmax [2]: 110 ng/mL
pIC50 [3]: < 5.00
pIC50 [4]: 5.15
pIC50 [6]: 5.67
AUC(0-t) at 24 h [7]: 128 ng·h/mL
pIC50 [8]: 9.49
Cmax [9]: 841 ng/mL
half-life [11]: 79.8 min
half-life [12]: 177 min
Cmax [13]: 160 ng/mL
pEC50 [14]: 7.71
pIC50 [15]: 5.31
AUC(0-t) at 24 h [16]: 67400 ng·h/mL
Cmax [17]: 764 ng/mL
Vd [18]: 12.8 L/kg
AUC(0-t) at 24 h [19]: 5290 ng·h/mL
clearance [20]: 127 mL/min/kg
AUC(0-t) at 24 h [21]: 3200 ng·h/mL
Ratio IC50 (Homo sapiens): > 10000
Ratio IC50 [22]: 472
AUC(0-t) at 24 h [24]: 45200 ng·h/mL
Structure (SMILES): CN1CCC(=C(F)c2cccc(NC(=O)c3c(F)cc(F)cc3F)n2)CC1
NOAEL at 672 h [5]: 50 mg/kg/day
Activity (Rattus norvegicus [10]): Active
Activity [23]: Non-Toxic
Activity (Rattus norvegicus [25]): Active
